Test results as given in PMC9940430, “Angiotensin converting enzyme (ACE) inhibitors activity from purified compounds Fructus Phaleria macrocarpa (Scheff) Boerl” (BMC Complementary Medicine and Therapies, 2023).
In brackets after ≈: the same amount, converted by molar mass.

Columns and labels:
leukemia l1210 cell line = test system: leukemia l1210 cell line; design: method as in doi:10.22146/ijc.21576; details: isolated from the bark of Mahkota Dewa; cited from earlier work
[1] = target: T1, angiotensin-converting enzyme (ACE) (Homo sapiens, UniProt P12821); test: In-vitro ACE inhibitor activity assay (HHL substrate, hippuric acid read at 228 nm); assay type: biochemical; details: for inhibition at 1.25 µg/mL: ACE inhibition at a concentration of 1.25 μg/ml, read-out: inhibitory activity ± SD (%); for IC50: ACE inhibition, purified compounds and captopril, read-out: IC50 ± SD (μg/mL) (converted)
Protocol: This assay was conducted on extract, fraction and three purified compounds using captopril as a positive control at the concentration of 0,01, 0,05, 0,5, 1,25 dan 6,25 mM. In a test tube, 50 μL of the solution assay was added with 50 μL of 8 mM hippuryl-histidyl-leucine (HHL) substrate solution and pre-incubated at 37 °C for 10 minutes, followed by the addition of 100 μL of the ACE, homogenization by vortex mixer, and incubation for 90 minutes at 37 °C. Further, 250 μL of 1 N HCl was added to the mixture to stop the enzymatic reaction. The hippuric acid was produced, while the enzymatic reaction was extracted by 1.5 mL ethyl acetate and later separated from the mixture by centrifugation. The mixture was then concentrated by heating at 100 °C and dispersed in 3 mL of demineralized aqueous to have its absorbance measured by spectrophotometer at 228 nm. The hippuric acid concentration was utilized to calculate the percentage of inhibition (%), and the IC50 value was then calculated using the percentage inhibition obtained. […] An inhibition kinetics test was employed to determine the inhibition mechanism of these compounds. It was performed type of Inhibition was determined by the Lineweaver-Burk method to acquire the Michaelis-Menten kinetic constant. The Michaelis-Menten kinetic constant (Km) is assessed based on the regression equation y = a + bx, in which x is the substrate concentration [S], and y is the absorbance of the sample [18].
Additionally, most chemicals originating from plants positively affect other aspects of normal metabolism. […] The activity of ACE inhibition from medicines or plant extracts can be detected using various ACE inhibitory activity assay methods. Using a substrate of hippuryl-histidyl-leucine (HHL), we used the Cushman and Cheung approach to the data from this study. The ACE will hydrolyze HHL into hippuric acid (HA). A UV-visible spectrophotometer was used to measure the HA at a wavelength of 228 nm to describe the ACE activity. […] Most ACE inhibitory plant metabolites are peptides, protein hydrolysates, phenolics, flavonoids, terpenoids, and alkaloids.

[2] = target: T1, angiotensin-converting enzyme (ACE); test: Enzyme inhibition kinetics of ACE (Lineweaver-Burk plot); assay type: biochemical; details: for type of inhibition kinetics: Lineweaver-Burk, HHL substrate 4, 6, 8, 10 and 12 μg/ml
Protocol: This assay was conducted on extract, fraction and three purified compounds using captopril as a positive control at the concentration of 0,01, 0,05, 0,5, 1,25 dan 6,25 mM. In a test tube, 50 μL of the solution assay was added with 50 μL of 8 mM hippuryl-histidyl-leucine (HHL) substrate solution and pre-incubated at 37 °C for 10 minutes, followed by the addition of 100 μL of the ACE, homogenization by vortex mixer, and incubation for 90 minutes at 37 °C. Further, 250 μL of 1 N HCl was added to the mixture to stop the enzymatic reaction. The hippuric acid was produced, while the enzymatic reaction was extracted by 1.5 mL ethyl acetate and later separated from the mixture by centrifugation. The mixture was then concentrated by heating at 100 °C and dispersed in 3 mL of demineralized aqueous to have its absorbance measured by spectrophotometer at 228 nm. The hippuric acid concentration was utilized to calculate the percentage of inhibition (%), and the IC50 value was then calculated using the percentage inhibition obtained. The IC50 value was determined as the peptide concentration in mg/mL was demanded to reduce 50% of ACE activity by regression analysis of the ACE inhibition versus ACE concentration percentage. The examination of the kinetics of enzyme inhibition was carried out at several concentrations of HHL substrates, which are 4, 6, 8, 10, and 12 μg/ml. The samples administered were compound with the lowest IC50 value. An inhibition kinetics test was employed to determine the inhibition mechanism of these compounds. It was performed type of Inhibition was determined by the Lineweaver-Burk method to acquire the Michaelis-Menten kinetic constant. The Michaelis-Menten kinetic constant (Km) is assessed based on the regression equation y = a + bx, in which x is the substrate concentration [S], and y is the absorbance of the sample [18].
Kinetic analysis of ACE inhibition was conducted by administering the Lineweaver-Burk plot (Fig. 4). […] The Lineweaver-Burk graph is generated from relationship of 1/[S] to 1/V.
The active compound with the smallest IC50 value was examined for enzyme inhibition kinetics. […] However, the Km values are different based on the calculation results of the Michaelis-Menten constant. […] Competitive inhibitors compete with the substrate for the enzyme’s active site so that the enzyme cannot produce an enzyme-substrate complex. However, when the concentration of the competitive inhibitor is greater than that of the substrate, it binds to the active binding site to form an enzyme inhibitor complex (EI), which ultimately prevents the formation of any product. In a typical enzymatic reaction, Vmax is the reaction’s maximal rate. Km, also known as the Michaelis-Menten constant, is the substrate concentration halfway between Vmax and Km. […]

T1 sequence (P12821 30-1306, species assumed): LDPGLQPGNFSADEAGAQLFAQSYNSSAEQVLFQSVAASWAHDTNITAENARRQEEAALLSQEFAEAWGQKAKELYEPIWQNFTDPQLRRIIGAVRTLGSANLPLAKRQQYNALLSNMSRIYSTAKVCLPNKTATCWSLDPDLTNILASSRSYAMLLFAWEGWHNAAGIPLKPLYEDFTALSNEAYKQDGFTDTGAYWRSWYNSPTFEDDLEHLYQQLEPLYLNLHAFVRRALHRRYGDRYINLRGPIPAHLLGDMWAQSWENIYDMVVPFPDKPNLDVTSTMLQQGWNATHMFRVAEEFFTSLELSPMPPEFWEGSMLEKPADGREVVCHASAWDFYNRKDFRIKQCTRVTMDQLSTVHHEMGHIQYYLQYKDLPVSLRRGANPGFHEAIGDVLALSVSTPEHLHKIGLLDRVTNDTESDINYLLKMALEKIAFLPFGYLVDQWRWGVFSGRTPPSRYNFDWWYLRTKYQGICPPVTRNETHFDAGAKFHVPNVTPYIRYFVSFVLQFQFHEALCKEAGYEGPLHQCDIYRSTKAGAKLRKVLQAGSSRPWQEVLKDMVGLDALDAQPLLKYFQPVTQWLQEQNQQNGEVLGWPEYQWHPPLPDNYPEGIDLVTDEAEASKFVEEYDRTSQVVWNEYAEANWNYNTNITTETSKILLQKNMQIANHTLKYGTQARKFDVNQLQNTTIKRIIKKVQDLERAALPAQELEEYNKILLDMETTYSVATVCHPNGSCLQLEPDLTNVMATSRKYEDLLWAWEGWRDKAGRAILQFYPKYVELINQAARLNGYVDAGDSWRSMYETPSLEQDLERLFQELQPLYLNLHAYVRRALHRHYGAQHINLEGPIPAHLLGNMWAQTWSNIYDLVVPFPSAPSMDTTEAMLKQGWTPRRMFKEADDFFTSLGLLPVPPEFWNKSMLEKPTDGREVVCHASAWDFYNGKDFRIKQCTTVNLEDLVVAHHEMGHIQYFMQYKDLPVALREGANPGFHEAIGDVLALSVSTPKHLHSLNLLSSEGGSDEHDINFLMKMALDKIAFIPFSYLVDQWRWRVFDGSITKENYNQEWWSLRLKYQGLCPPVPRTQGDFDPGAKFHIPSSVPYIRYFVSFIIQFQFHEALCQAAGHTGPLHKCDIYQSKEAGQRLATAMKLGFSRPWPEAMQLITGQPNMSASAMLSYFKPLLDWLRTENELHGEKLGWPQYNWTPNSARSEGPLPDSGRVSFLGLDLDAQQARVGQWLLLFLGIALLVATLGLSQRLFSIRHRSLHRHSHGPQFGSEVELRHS

| inhibition at 1.25 µg/mL [1] [%] | IC50 [1] [nM] | Vmax, isolate versus without inhibitor ([2]; Lineweaver-Burk plot, Fig. 4) | type of inhibition kinetics ([2]; listed as compound 3) | type of inhibition kinetics ([2]; listed as mangiferin) | Km, isolate versus without inhibitor ([2]; Michaelis-Menten constant, Fig. 4) | Compound | IC50 (leukemia l1210 cell line) [µg/mL] |
| --- | --- | --- | --- | --- | --- | --- | --- |
|  |  |  |  |  |  | COc1cc(O)c(C(=O)c2ccc(O)cc2)c(OC2OC(CO)C(O)C(O)C2O)c1 [6,4′-dihydroxy-6-methoxybenzophenone-2-O-β-D-glucopyranoside] | 5.1 (≈ 12.1 µM) |
| 77.48 ± 0.5 | 130 |  |  |  |  | COc1cc(O)c(C(=O)c2ccc(O)cc2)c(OC2OC(CO)C(O)C(O)C2O)c1 [Compound 1, 6,4′-dihydroxy-4-methoxybenzophenone-2-O-β-D-glucopyranoside] |  |
| 85.17 ± 0.23 | 166 |  |  |  |  | COc1cc(O)cc(OC2OC(CO)C(O)C(O)C2O)c1C(=O)c1ccc(O)cc1 [Compound 2, 4,4′-dihydroxy-6-methoxybenzophenone-2-O-β-D-glucopyranoside] |  |
| 86.99 ± 0.02 | 59.2 | almost the same | competitively inhibiting | competitive inhibition | different | O=c1c2cc(O)c(O)cc2oc2cc(O)c([C@@H]3O[C@H](CO)[C@@H](O)[C@H](O)[C@H]3O)c(O)c12 [Compound 3, mangiferin] |  |
